This test addresses ABCB1 (MDR1/P-glycoprotein) (Homo sapiens, UniProt P08183). As to the kind of experiment: Vi-sensitive ATPase stimulation in High Five insect cell membrane vesicles; also rhodamine […]/doxorubicin accumulation in ABCB1-overexpressing cells. It counts as biochemical.

Sequence of ABCB1 (MDR1/P-glycoprotein) (P08183 whole entry): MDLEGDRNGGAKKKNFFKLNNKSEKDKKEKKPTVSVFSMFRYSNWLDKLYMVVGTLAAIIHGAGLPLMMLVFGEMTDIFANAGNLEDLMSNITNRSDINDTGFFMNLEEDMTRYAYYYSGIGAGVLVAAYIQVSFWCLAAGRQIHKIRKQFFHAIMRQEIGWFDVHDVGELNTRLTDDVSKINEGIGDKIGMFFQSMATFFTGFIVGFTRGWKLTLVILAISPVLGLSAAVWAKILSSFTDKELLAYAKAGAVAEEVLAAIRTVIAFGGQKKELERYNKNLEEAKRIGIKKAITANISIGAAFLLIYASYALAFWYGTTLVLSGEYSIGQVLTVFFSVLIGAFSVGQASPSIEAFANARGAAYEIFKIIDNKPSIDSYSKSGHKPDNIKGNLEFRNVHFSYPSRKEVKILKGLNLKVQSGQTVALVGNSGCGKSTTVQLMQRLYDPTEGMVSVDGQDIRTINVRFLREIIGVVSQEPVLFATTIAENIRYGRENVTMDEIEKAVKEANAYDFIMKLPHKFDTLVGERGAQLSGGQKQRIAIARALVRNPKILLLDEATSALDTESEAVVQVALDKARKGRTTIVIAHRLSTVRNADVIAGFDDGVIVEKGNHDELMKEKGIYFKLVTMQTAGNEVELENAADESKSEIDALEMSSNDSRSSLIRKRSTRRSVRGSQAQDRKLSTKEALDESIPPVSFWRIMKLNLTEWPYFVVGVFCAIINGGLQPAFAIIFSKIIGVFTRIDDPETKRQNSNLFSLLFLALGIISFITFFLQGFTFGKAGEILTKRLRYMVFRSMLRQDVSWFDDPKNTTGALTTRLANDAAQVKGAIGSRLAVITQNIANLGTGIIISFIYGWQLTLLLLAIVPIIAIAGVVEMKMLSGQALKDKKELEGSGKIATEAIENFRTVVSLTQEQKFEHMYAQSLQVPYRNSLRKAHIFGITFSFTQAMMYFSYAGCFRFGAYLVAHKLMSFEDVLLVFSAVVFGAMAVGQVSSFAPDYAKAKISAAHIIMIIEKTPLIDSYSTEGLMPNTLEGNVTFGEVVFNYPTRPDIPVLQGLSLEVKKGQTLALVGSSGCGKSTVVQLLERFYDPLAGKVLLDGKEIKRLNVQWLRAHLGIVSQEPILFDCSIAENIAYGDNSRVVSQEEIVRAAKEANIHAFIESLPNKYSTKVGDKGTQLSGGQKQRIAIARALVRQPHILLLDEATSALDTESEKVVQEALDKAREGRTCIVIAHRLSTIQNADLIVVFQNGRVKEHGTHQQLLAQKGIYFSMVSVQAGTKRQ

In turn, `CC(=O)Nc1cccc(-n2c(=O)n(C3CC3)c(=O)c3c(Nc4ccc(I)cc4F)n(C)c(=O)c(C)c32)c1` [Trametinib] had a 50% effective concentration (EC50) of 1.02 µM.

The EC50 is the concentration at which the effect is half-maximal.

These data come from publication PMC4558166, “Trametinib modulates cancer multidrug resistance by targeting ABCB1 transporter” (Oncotarget, 2015).
